Like-named read-outs stand apart in the source and are kept apart here.
Columns and labels:
[1] = system: genotype 2a HCV replicon with NS5A amino acid substitutions; assay: Transient replicon assay, genotype 2a NS5A amino acid substitutions; format: cell-based, Hepatitis C virus; details: for EC50 / EC90: Hepatitis C virus
HCV1b replicon = assay: Serum shift assay; format: cell-based, Hepatitis C virus; details: for EC90 / EC50: Hepatitis C virus; for EC50: read-out: E50
Experimental: (9) Serum shift assay. In the serum shift assay, the inhibitory activity of DBPR110 was determined using replicon 1b in the presence of 10, 20, 30, 40 or 50% fetal bovine serum, or 10 or 40% of extracellular normal human serum.

Cytotoxicity assay (MTT) = format: cell-based; details: human, read-out: CC50
Experimental: (4) Cytotoxicity assay. The sensitivity of the cell lines to inhibitors was examined using a 3-(4,5-Dimethylthiazol-2-yl)-2,5-diphenyltetrazolium bromide (MTT) assay. Briefly, Huh-7.5 cells were plated at a density of 1×10^5 cells per well in 12-well plates containing 1 mL of culture medium for 4 h. Serial dilutions of the compounds or DMSO (negative control) were added, and the plates were incubated for an additional 72 h. The MTT reagent was then added to each well, and the plates were incubated for 3 h at 37° C. in a humidified 5% CO2 atmosphere before reading at a wavelength of 563 nm using an ELISA plate reader. All data are presented as the means +/−SD from four independent experiments.

[2] = system: genotype 1b HCV replicon with NS5A amino acid substitutions; assay: Transient replicon assay, genotype 1b NS5A amino acid substitutions; format: cell-based, Hepatitis C virus; details: for EC50 / EC90: Hepatitis C virus
[3] = system: Infectious HCV, Genotype 2a, JFH1; assay: Small molecule inhibition of HCV infectivity (luciferase); format: cell-based, Hepatitis C virus
Text: (5) Small molecule inhibition of HCV infectivity. To quantify the inhibitory effect of DBPR110 on HCV particle formation, HCV replication in DBPR110-treated and untreated cells was quantified using a luciferase activity assay, as described previously. See, e.g., Wakita et al., Nat Med 11:791-6 (2005); and Zhang et al., Antimicrob Agents Chemother 52:666-74 (2008). In vitro-transcribed RNA derived from full-length HCV2a JFH1 infectious cDNA clone with the luciferase reporter gene was delivered to Huh-7.5 cells by electroporation. The cells were seeded at 1×10^5 cells per well in 12-well plates and incubated for 4 h. The medium was then aspirated and replaced with 1 mL of complete medium containing DBPR110 in serial concentration. The plates with compounds were incubated for 72 h and the medium were then used to infect Huh-7.5 cells. Huh-7.5 cells were seeded in 12-well plates (1×10^5 cells/well) in DMEM with 10% FBS for 24 h before infection. The HCV cell culture (HCVcc)-containing supernatant per well was added to the Huh-7.5 cells. After 72 h of incubation at 37° C., the total cell lysate was assayed for luciferase expression (Promega).

[4] = genotype 1b NS5A V153M + M202L + M265V
[5] = genotype 1b NS5A Y93H + V153M + M202L + M265V
[6] = genotype 1b NS5A Y93N + V153M + M202L + M265V

O=C(N[C@@H](C(=O)N1CCC[C@H]1c1ncc(-c2ccc(-c3ccc(-c4cnc([C@@H]5CCCN5C(=O)[C@H](NC(=O)C5CC5)c5ccccc5)s4)cc3)cc2)s1)c1ccccc1)C1CC1 [DBPR110]
EC50 ([1]; genotype 2a NS5A P58L): 53 nM | EC90 ([1]; genotype 2a NS5A P58L): 89.3 nM | EC50 ([1]; genotype 2a NS5A Parental): 0.25 ± 0.032 nM | EC90 ([1]; genotype 2a NS5A Parental): 0.592 ± 0.07 nM | EC50 ([1]; genotype 2a NS5A T24A): 16.2 nM | EC90 ([1]; genotype 2a NS5A T24A): 63.5 nM | EC50 ([1]; genotype 2a NS5A Y93H): 760 nM | EC90 ([1]; genotype 2a NS5A Y93H): > 5000 nM | EC50 ([1]; genotype 2a NS5A Y93N): 51.8 nM | EC90 ([1]; genotype 2a NS5A Y93N): 85.2 nM | Fold resistance (EC50) ([1]; genotype 2a NS5A P58L): 212 fold | Fold resistance (EC90) ([1]; genotype 2a NS5A P58L): 151 fold | Fold resistance (EC50) ([1]; genotype 2a NS5A Parental): 1 fold | Fold resistance (EC90) ([1]; genotype 2a NS5A Parental): 1 fold | Fold resistance (EC50) ([1]; genotype 2a NS5A T24A): 65 fold | Fold resistance (EC90) ([1]; genotype 2a NS5A T24A): 107 fold | Fold resistance (EC50) ([1]; genotype 2a NS5A Y93H): 3,041 fold | Fold resistance (EC90) ([1]; genotype 2a NS5A Y93H): >8,446 fold | Fold resistance (EC50) ([1]; genotype 2a NS5A Y93N): 207 fold | Fold resistance (EC90) ([1]; genotype 2a NS5A Y93N): 144 fold | Shift fold (EC50) (HCV1b replicon; 10% FBS): 1.0 fold | Shift fold (EC90) (HCV1b replicon; 10% FBS): 1.0 fold | Shift fold (EC50) (HCV1b replicon; 10% NHS (normal human serum)): 1.0 fold | Shift fold (EC90) (HCV1b replicon; 10% NHS (normal human serum)): 1.0 fold | Shift fold (EC50) (HCV1b replicon; 20% FBS): 1.9 fold | Shift fold (EC90) (HCV1b replicon; 20% FBS): 2.6 fold | Shift fold (EC50) (HCV1b replicon; 30% FBS): 1.8 fold | Shift fold (EC90) (HCV1b replicon; 30% FBS): 2.3 fold | Shift fold (EC50) (HCV1b replicon; 40% FBS): 3.1 fold | Shift fold (EC90) (HCV1b replicon; 40% FBS): 3.8 fold | Shift fold (EC50) (HCV1b replicon; 40% NHS (normal human serum)): 6.3 fold | Shift fold (EC90) (HCV1b replicon; 40% NHS (normal human serum)): 14.1 fold | Shift fold (EC50) (HCV1b replicon; 50% FBS): 5.0 fold | Shift fold (EC90) (HCV1b replicon; 50% FBS): 4.5 fold | EC90 (HCV1b replicon; 10% FBS): 0.0093 ± 0.0034 nM | EC50 (HCV1b replicon; 10% FBS): 0.0043 ± 0.0008 nM | EC90 (HCV1b replicon; 10% NHS (normal human serum)): 0.0416 ± 0.0013 nM | EC50 (HCV1b replicon; 10% NHS (normal human serum)): 0.0335 ± 0.0004 nM | EC90 (HCV1b replicon; 20% FBS): 0.0238 ± 0.011 nM | EC50 (HCV1b replicon; 20% FBS): 0.0081 ± 0.0016 nM | EC90 (HCV1b replicon; 30% FBS): 0.0216 ± 0.017 nM | EC50 (HCV1b replicon; 30% FBS): 0.0079 ± 0.0009 nM | EC90 (HCV1b replicon; 40% FBS): 0.0351 ± 0.0074 nM | EC50 (HCV1b replicon; 40% FBS): 0.0132 ± 0.0017 nM | EC90 (HCV1b replicon; 40% NHS (normal human serum)): 0.588 ± 0.0459 nM | EC50 (HCV1b replicon; 40% NHS (normal human serum)): 0.211 ± 0.0063 nM | EC90 (HCV1b replicon; 50% FBS): 0.0419 ± 0.0072 nM | EC50 (HCV1b replicon; 50% FBS): 0.0215 ± 0.01 nM | CC50 at 72 h (Cytotoxicity assay (MTT); Genotype 2a, JFH1): > 50000 nM | CC50 at 72 h (Cytotoxicity assay (MTT); HCV-1b replicon cell lines, single agent): > 50 nM | CC50 at 72 h (Cytotoxicity assay (MTT); Huh-7.5 cells, Genotype 1b, Con1): > 50000 nM | CC50 at 72 h (Cytotoxicity assay (MTT); Infectious HCV, Genotype 2a, JFH1): > 50000 nM | EC50 ([2]; genotype 1b NS5A M202L): 0.0021 ± 0.0006 nM | EC90 ([2]; genotype 1b NS5A M202L): 0.005 ± 0.0014 nM | EC50 ([2]; genotype 1b NS5A M265V): 0.002 ± 0.0009 nM | EC90 ([2]; genotype 1b NS5A M265V): 0.0051 ± 0.0017 nM | EC50 ([2]; genotype 1b NS5A P58L): 0.564 ± 0.194 nM | EC90 ([2]; genotype 1b NS5A P58L): 2.73 ± 0.909 nM | EC50 ([2]; genotype 1b NS5A P58S): 0.038 ± 0.014 nM | EC90 ([2]; genotype 1b NS5A P58S): 0.064 ± 0.011 nM | EC50 ([2]; genotype 1b NS5A P58T): 0.243 ± 0.04 nM | EC90 ([2]; genotype 1b NS5A P58T): 1.3 ± 0.219 nM | EC50 ([2]; genotype 1b NS5A Parental): 0.0015 ± 0.0006 nM | EC90 ([2]; genotype 1b NS5A Parental): 0.0042 ± 0.0021 nM | EC50 ([2]; genotype 1b NS5A V153M): 0.0013 ± 0.0005 nM | EC90 ([2]; genotype 1b NS5A V153M): 0.0041 ± 0.0019 nM | EC50 [2, 4]: 0.0011 ± 0.0005 nM | EC90 [2, 4]: 0.0031 ± 0.0011 nM | EC50 ([2]; genotype 1b NS5A Y93C): 0.078 ± 0.04 nM | EC90 ([2]; genotype 1b NS5A Y93C): 0.177 ± 0.062 nM | EC50 ([2]; genotype 1b NS5A Y93H): 1.41 nM | EC90 ([2]; genotype 1b NS5A Y93H): 7.34 nM | EC50 [2, 5]: 8.74 nM | EC90 [2, 5]: 37.7 nM | EC50 ([2]; genotype 1b NS5A Y93N): 3.82 nM | EC90 ([2]; genotype 1b NS5A Y93N): 13.3 nM | EC50 [2, 6]: 27.3 nM | EC90 [2, 6]: 98.9 nM | Fold resistance (EC50) ([2]; genotype 1b NS5A M202L): 1 fold | Fold resistance (EC90) ([2]; genotype 1b NS5A M202L): 1 fold | Fold resistance (EC50) ([2]; genotype 1b NS5A M265V): 1 fold | Fold resistance (EC90) ([2]; genotype 1b NS5A M265V): 1 fold | Fold resistance (EC50) ([2]; genotype 1b NS5A P58L): 376 fold | Fold resistance (EC90) ([2]; genotype 1b NS5A P58L): 650 fold | Fold resistance (EC50) ([2]; genotype 1b NS5A P58S): 25 fold | Fold resistance (EC90) ([2]; genotype 1b NS5A P58S): 15 fold | Fold resistance (EC50) ([2]; genotype 1b NS5A P58T): 162 fold | Fold resistance (EC90) ([2]; genotype 1b NS5A P58T): 310 fold | Fold resistance (EC50) ([2]; genotype 1b NS5A Parental): 1 fold | Fold resistance (EC90) ([2]; genotype 1b NS5A Parental): 1 fold | Fold resistance (EC50) ([2]; genotype 1b NS5A V153M): 1 fold | Fold resistance (EC90) ([2]; genotype 1b NS5A V153M): 1 fold | Fold resistance (EC50) [2, 4]: 1 fold | Fold resistance (EC90) [2, 4]: 1 fold | Fold resistance (EC50) ([2]; genotype 1b NS5A Y93C): 52 fold | Fold resistance (EC90) ([2]; genotype 1b NS5A Y93C): 42 fold | Fold resistance (EC50) ([2]; genotype 1b NS5A Y93H): 939 fold | Fold resistance (EC90) ([2]; genotype 1b NS5A Y93H): 1,747 fold | Fold resistance (EC50) [2, 5]: 5,824 fold | Fold resistance (EC90) [2, 5]: 8,979 fold | Fold resistance (EC50) ([2]; genotype 1b NS5A Y93N): 2,547 fold | Fold resistance (EC90) ([2]; genotype 1b NS5A Y93N): 3,168 fold | Fold resistance (EC90) [2, 6]: 23,550 fold | Selective index ([3]; CC50/EC50, Infectious HCV, Genotype 2a, JFH1): >720,461 | EC50 ([3]; Hepatitis C virus, read-out: Luciferase activity assay EC50): 0.0183 nM | EC90 ([3]; Hepatitis C virus, read-out: Luciferase activity assay EC90): 0.258 ± 0.0502 nM

Reference: US20140127158A1, “COMBINATION THERAPY FOR HEPATITIS C VIRUS INFECTION” (National Health Research Institute, priority 2012, published 2014)
